These are literature values, as cited in PMC9669016, “First-in-human phase Ia study of the PI3Kα inhibitor CYH33 in patients with solid tumors” (Nature Communications, 2022).

Data set [1] concerns patients with PIK3CA-mutated HR+/HER2– breast cancer / PIK3CA-altered solid tumors. Conditions: cited from earlier work.
The test system of data set [2] is KYSE410, KYSE510, EC104, EC063, EC074 xenograft models. The arrangement: method as in Investigator's Brochure (IB) 12. The note with it: 12.5 mg/kg; 9 values for 5 models, model column not assignable; ref Investigator's Brochure (IB) 12; listed as BYL-719; cited from earlier work.

“And” between values parts separate entries of the source, which are not always exact repeats. Equal entries are not always repeated.

On to `Cc1nc(NC(=O)N2CCC[C@H]2C(N)=O)sc1-c1ccnc(C(C)(C)C(F)(F)F)c1` [alpelisib], for which, in data set [1], the frequency of diarrhea is listed as 57.7% and the incidence of rash is 64.0%. In addition, the “improvement in median overall survival” value in data set [1] (phase III SOLAR-1, alpelisib plus fulvestrant vs fulvestrant plus placebo, advanced PIK3CA-mutated HR+/HER2– breast cancer) is 7.9 month. Also, the “incidence of rash with prophylactic anti-rash medication” value in data set [1] (within the first 4–8 weeks of treatment) is on record as 24.6%. In data set [2], the “T/C% (tumor/control ratio)” value was 29.09% and 47.62%.
